According to patent US20240174723A1, “STAPLED ANTIMICROBIAL PEPTIDES (STAMPS) AND USES THEREOF” (Lytica Therapeutics, Inc., priority 2021, published 2024):
Values after ≈ are worked out from the molar mass of the structure shown. Where two headings read alike, the source gives them in different places. Positions of bridges follow the written chain, without caps; N, C: chain ends. Non-standard residues stand in square brackets, D forms with d. Residues, ends and D or L forms follow the SMILES beside them. PEG5 = NCCOCCOCCOCCOCCOCCC(=O)O; S5 = C=CCCC[C@](C)(N)C(=O)O; PEG2 = NCCOCCOCCC(=O)O

Key:
E. coli = type: cell-based, Escherichia coli
How it was run: (§1)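 StAMP peptides were tested by CLSI-adapted broth microdilution in MHB or cation-adjusted MHB II, final inoculum 5×10^5 CFU/ml from log-phase cultures. After 20-24 h at 37° C, MIC was taken as the lowest peptide concentration without visible growth.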

in vitro [1] = type: cell-based; conditions: human
How it was run: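 HepG2 cells in EMEM with 10% FBS, allowed 4 h to attach, then exposed to serial dilutions of StAMPs (from a 5 mg/mL water stock) or vehicle. After 48 h at 37 °C, viability read by CellTiter-Glo luminescence.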

S. aureus = type: cell-based, Staphylococcus aureus
How it was run: as §1

in vitro [2] = type: cell-based; conditions: human; remark: listed apart in the source
How it was run: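 RPTEC or HepG2 cells plated overnight, given fresh media, then serial StAMP dilutions (from 5 mg/mL water stock) or vehicle at 37 °C. Cytotoxicity read as LDH release into media, absorbance 490 nm; renal toxicity after 90 min, liver toxicity after 48 h incubation.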

P. aeruginosa = type: cell-based, Pseudomonas aeruginosa
How it was run: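 Broth microdilution adapted from CLSI in MHB or cation-adjusted MHB; log-phase P. aeruginosa at 5×10^5 CFU/ml final with serially diluted stapled peptides. Incubated 20-24 h at 37 °C; MIC is the lowest concentration without visible growth.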

K. pneumoniae = type: cell-based, Klebsiella pneumoniae
How it was run: as §1

A. baumannii = type: cell-based, Acinetobacter baumannii
How it was run: as §1

[3] = Inhibitory Concentration at 50% Cytotoxicity (IC50) Human Liver Cells (HepG2)

Row | SMILES | Minimum Inhibitory Concentration (MIC) E. coli (E. coli) [µg/mL] | Minimum Inhibitory Concentration (MIC) S. aureus (S. aureus) [µg/mL] | IC50 at 90 min (in vitro [2]) [µg/mL] | Minimum Inhibitory Concentration (MIC) P. aeruginosa (P. aeruginosa) [µg/mL] | Minimum Inhibitory Concentration (MIC) K. pneumoniae (K. pneumoniae) [µg/mL] | Minimum Inhibitory Concentration (MIC) A. baumannii (A. baumannii) [µg/mL] | IC50 at 48 hours (in vitro [1]; [3]) [µg/mL] | IC50 at 48 hours (in vitro [1]; 48 hours of incubation, read-out: Inhibitory Concentration at 50% Cytotoxicity (IC50) Human Liver Cells (HepG2)) [µg/mL] | IC50 at 90 min (in vitro [2]; 90 minutes of incubation, read-out: Inhibitory Concentration at 50% Cytotoxicity (IC50) Human Renal Proximal Tubule Epithelial Cells (RPTEC)) [µg/mL]
1 | CC(C)[C@@H]1NC(=O)[C@@](C)(NC(=O)[C@H](C)NC(=O)[C@H](CCCCN)NC(=O)CNC(=O)[C@H](Cc2ccccc2)NC(=O)[C@H](CCCCN)NC(=O)[C@H](CCCCN)NC(=O)[C@H](CCCCN)NC(=O)[C@H](CCCCN)NC(=O)[C@H](CCCCN)NC(=O)[C@]2(C)CCCC=CCCC[C@](C)(NC(=O)CN)C(=O)NCC(=O)N[C@@H](CCCCN)C(=O)N[C@@H](Cc3ccccc3)C(=O)N2)CCCC=CCCC[C@@](C)(C(=O)N[C@@H](C)C(=O)N[C@@H](CCCCN)C(=O)N[C@@H](CCCCN)C(=O)NCC(=O)NCC(=O)N[C@@H](CCC(=O)O)C(N)=O)NC(=O)[C@H](CCC(=O)O)NC(=O)[C@@H](Cc2ccccc2)NC1=O [compound 34] (H-G[S5]GKF[S5]KKKKKFGKA[S5]V[dF]E[S5]AKKGGE-NH2; staple 2-6, 16-20) | 2 | >64 |  | 4 | 2 | 2 |  | 109 (≈ 37.6 µM) | 96 (≈ 33.1 µM)
2 | CC(C)[C@@H]1NC(=O)[C@@](C)(NC(=O)[C@H](C)NC(=O)[C@H](CCCCN)NC(=O)CNC(=O)[C@H](Cc2ccccc2)NC(=O)[C@H](CCCCN)NC(=O)[C@H](CCCCN)NC(=O)[C@H](CCCCN)NC(=O)[C@H](CCCCN)NC(=O)[C@H](Cc2c[nH]cn2)NC(=O)[C@]2(C)CCCC=CCCC[C@](C)(NC(=O)CN)C(=O)NCC(=O)N[C@@H](CO)C(=O)N[C@@H](Cc3ccccc3)C(=O)N2)CCCC=CCCC[C@@](C)(C(=O)N[C@@H](C)C(=O)N[C@@H](CCCCN)C(=O)N[C@@H](CCCCN)C(N)=O)NC(=O)[C@H](CCC(=O)O)NC(=O)CNC1=O [compound 5] (H-G[S5]GSF[S5]HKKKKFGKA[S5]VGE[S5]AKK-NH2; staple 2-6, 16-20) | 4 | >64 | > 200 | 4 | >64 | 4 | > 200 |  | 
3 | CC(C)[C@@H]1NC(=O)[C@@](C)(NC(=O)[C@H](C)NC(=O)[C@H](CCCCN)NC(=O)CNC(=O)[C@H](Cc2ccccc2)NC(=O)[C@H](CCCCN)NC(=O)[C@H](CCCCN)NC(=O)[C@H](CCCCN)NC(=O)[C@H](CCCCN)NC(=O)[C@H](CCCCN)NC(=O)[C@]2(C)CCCC=CCCC[C@](C)(NC(=O)CN)C(=O)NCC(=O)N[C@@H](CCCCN)C(=O)N[C@@H](Cc3ccccc3)C(=O)N2)CCCC=CCCC[C@@](C)(C(=O)N[C@@H](C)C(=O)N[C@@H](CCCCN)C(=O)N[C@@H](CCCCN)C(=O)NCCOCCOCCOCCOCCOCCC(N)=O)NC(=O)[C@H](CCC(=O)O)NC(=O)CNC1=O [compound 75] (H-G[S5]GKF[S5]KKKKKFGKA[S5]VGE[S5]AKK[PEG5]-NH2; staple 2-6, 16-20) | 4 | >64 | > 200 | 4 | 8 | 2 | 357 (≈ 125 µM) |  | 
4 | CC(C)[C@@H]1NC(=O)[C@@](C)(NC(=O)[C@H](C)NC(=O)[C@H](CCCCN)NC(=O)CNC(=O)[C@H](Cc2ccccc2)NC(=O)[C@H](CCCCN)NC(=O)[C@H](CCCCN)NC(=O)[C@H](CCCCN)NC(=O)[C@H](CCCCN)NC(=O)[C@H](CCCCN)NC(=O)[C@]2(C)CCCC=CCCC[C@](C)(NC(=O)CN)C(=O)NCC(=O)N[C@@H](CCCCN)C(=O)N[C@@H](Cc3ccccc3)C(=O)N2)CCCC=CCCC[C@@](C)(C(=O)N[C@@H](C)C(=O)N[C@@H](CCCCN)C(=O)N[C@@H](CCCCN)C(=O)NCCOCCOCCC(N)=O)NC(=O)[C@H](CCC(=O)O)NC(=O)CNC1=O [compound 72] (H-G[S5]GKF[S5]KKKKKFGKA[S5]VGE[S5]AKK[PEG2]-NH2; staple 2-6, 16-20) | 2 | >64 | 200 (≈ 73.4 µM) | 4 | 4 | 2 | 275 (≈ 101 µM) |  | 
5 | CC(C)[C@@H]1NC(=O)[C@@](C)(NC(=O)[C@H](C)NC(=O)[C@H](CCCCN)NC(=O)CNC(=O)[C@H](Cc2ccccc2)NC(=O)[C@H](CCCCN)NC(=O)[C@H](CCCCN)NC(=O)[C@H](CCCCN)NC(=O)[C@H](CO)NC(=O)[C@H](Cc2c[nH]cn2)NC(=O)[C@]2(C)CCCC=CCCC[C@](C)(NC(=O)CN)C(=O)NCC(=O)N[C@@H](CCCCN)C(=O)N[C@@H](Cc3ccccc3)C(=O)N2)CCCC=CCCC[C@@](C)(C(=O)N[C@@H](C)C(=O)N[C@@H](CCCCN)C(=O)N[C@@H](CCCCN)C(N)=O)NC(=O)[C@H](CC(N)=O)NC(=O)CNC1=O [compound 18] (H-G[S5]GKF[S5]HSKKKFGKA[S5]VGN[S5]AKK-NH2; staple 2-6, 16-20) | 4 | >64 | ~200 (≈ 79.5 µM) | 4 | 64 | 2 | > 200 |  | 

Second part, led by results:

Row | Minimum Inhibitory Concentration (MIC) E. coli (E. coli) [µg/mL] | Minimum Inhibitory Concentration (MIC) S. aureus (S. aureus) [µg/mL] | IC50 at 90 min (in vitro [2]) [µg/mL] | Minimum Inhibitory Concentration (MIC) P. aeruginosa (P. aeruginosa) [µg/mL] | Minimum Inhibitory Concentration (MIC) K. pneumoniae (K. pneumoniae) [µg/mL] | Minimum Inhibitory Concentration (MIC) A. baumannii (A. baumannii) [µg/mL] | SMILES | IC50 at 48 hours (in vitro [1]; [3]) [µg/mL] | IC50 at 48 hours (in vitro [1]; 48 hours of incubation, read-out: Inhibitory Concentration at 50% Cytotoxicity (IC50) Human Liver Cells (HepG2)) [µg/mL] | IC50 at 90 min (in vitro [2]; 90 minutes of incubation, read-out: Inhibitory Concentration at 50% Cytotoxicity (IC50) Human Renal Proximal Tubule Epithelial Cells (RPTEC)) [µg/mL]
6 | 2 | >64 | 203 (≈ 78.9 µM) | 6 | 7 | 2 | CC(C)[C@@H]1NC(=O)[C@H](C(C)C)NC(=O)[C@@](C)(NC(=O)[C@H](C)NC(=O)[C@H](CCCCN)NC(=O)CNC(=O)[C@H](Cc2ccccc2)NC(=O)[C@H](CCCCN)NC(=O)[C@H](CCCCN)NC(=O)[C@H](CCCCN)NC(=O)[C@H](CO)NC(=O)[C@H](Cc2c[nH]cn2)NC(=O)[C@]2(C)CCCC=CCCC[C@](C)(NC(=O)CN)C(=O)NCC(=O)N[C@@H](CCCCN)C(=O)N[C@@H](Cc3ccccc3)C(=O)N2)CCCC=CCCC[C@@](C)(C(=O)N[C@@H](C)C(=O)N[C@@H](CCCCN)C(=O)N[C@@H](CCCCN)C(N)=O)NC(=O)[C@H](CCC(=O)O)NC1=O [compound 11] (H-G[S5]GKF[S5]HSKKKFGKA[S5]VVE[S5]AKK-NH2; staple 2-6, 16-20) | 227 (≈ 88.2 µM) |  | 
7 | 4 | 32 | 16 (≈ 6.18 µM) | 6 | 4 | 4 | CC(C)[C@@H]1NC(=O)[C@@](C)(NC(=O)[C@H](C)NC(=O)[C@H](CCCCN)NC(=O)CNC(=O)[C@H](Cc2ccccc2)NC(=O)[C@H](CCCCN)NC(=O)[C@H](CCCCN)NC(=O)[C@H](CCCCN)NC(=O)[C@H](CO)NC(=O)[C@H](Cc2c[nH]cn2)NC(=O)[C@]2(C)CCCC=CCCC[C@](C)(NC(=O)CN)C(=O)NCC(=O)N[C@@H](CCCCN)C(=O)N[C@@H](Cc3ccccc3)C(=O)N2)CCCC=CCCC[C@@](C)(C(=O)N[C@@H](C)C(=O)N[C@@H](CCCCN)C(=O)N[C@@H](CCCCN)C(N)=O)NC(=O)[C@H](Cc2c[nH]c3ccccc23)NC(=O)CNC1=O [compound 66] (H-G[S5]GKF[S5]HSKKKFGKA[S5]VGW[S5]AKK-NH2; staple 2-6, 16-20) | 38 (≈ 14.7 µM) |  | 
8 | 2 | >64 | 92 (≈ 35.9 µM) | 4 | 4 | 2 | CC(C)[C@@H]1NC(=O)[C@H](C(C)C)NC(=O)[C@@](C)(NC(=O)[C@H](C)NC(=O)[C@H](CCCCN)NC(=O)CNC(=O)[C@H](Cc2ccccc2)NC(=O)[C@H](CCCCN)NC(=O)[C@H](CCCCN)NC(=O)[C@H](CCCCN)NC(=O)[C@H](CO)NC(=O)[C@H](CCCCN)NC(=O)[C@]2(C)CCCC=CCCC[C@](C)(NC(=O)CN)C(=O)NCC(=O)N[C@@H](CCCCN)C(=O)N[C@@H](Cc3ccccc3)C(=O)N2)CCCC=CCCC[C@@](C)(C(=O)N[C@@H](C)C(=O)N[C@@H](CCCCN)C(=O)N[C@@H](CCCCN)C(N)=O)NC(=O)[C@H](CCC(=O)O)NC1=O [compound 19] (H-G[S5]GKF[S5]KSKKKFGKA[S5]VVE[S5]AKK-NH2; staple 2-6, 16-20) | 95 (≈ 37 µM) |  | 
